Measured values reported in article PMC7224190, “Pharmacological inhibition of PRMT7 links arginine monomethylation to the cellular stress response” (Nature Communications, 2020).

Legend:
Test in all cases: biochemical
Set-up in all cases: radiometric methyltransferase selectivity assay with tritiated SAM, per cent activity
Conditions in all cases: read-out: % of control remaining
[1] = target: T1, SUV420H1 (Homo sapiens, UniProt Q4FZB7)
T1 construct: gene KMT5B
Description: (§1) The methyltransferase selectivity was assessed at two compound concentrations of 1 and 10 μM by radiometric assays using tritiated-SAM. For methyltransferases: MLL1, MLL3, EZH1 (PRC2), and EZH2 (PRC2), G9a, GLP, SUV39H1, SUV39H2, SUV420H1, SUV420H2, SETD2, SETD8, SETDB1, SETD7, PRMT1, PRMT3, PRMT4, PRMT5/ MEP50 complex, PRMT6, PRMT7, PRMT8, PRMT9, PRDM9, SMYD2, SMYD3, DNMT1, and BCDIN3D the incorporation of a tritium-labeled methyl group into biotinylated substrate was monitored using scintillation proximity assay (SPA). Briefly, a 10 μL reaction containing ^3H-SAM and substrate at concentrations close to the apparent Km values for each enzyme (balanced conditions) was prepared. The reactions were quenched with 10 μL of 7.5 M guanidine hydrochloride; 180 μL of 20 mM Tris buffer (pH 8.0) were added, and the mixture was transferred to a 96-well FlashPlate and incubated for 1 h. The counts per minute (CPM) was measured on a TopCount plate reader. The CPM in the absence of compound or enzyme was defined as 100% activity and background (0%), respectively, for each dataset[74]–[76]. Selectivity of SGC8158 against 342 kinases was evaluated in a kinase panel TR-FRET assay at 1 and 0.1 μM compound in duplicates as described before. Briefly, tagged kinases were incubated with compound and staurosporine-based fluorescent probe where the binding was detected using Tb conjugated anti-tag antibody energy transfer to the probe. Excitation wavelength was 337 nm and fluorescent emission signal was measured for Tb (486 nm) and fluorescent probe (BODIPY, 515 nm). Specific and non-specific binding was determined in the absence and presence of unlabeled staurosporine.

[2] = target: DNMT1 (Homo sapiens, UniProt P26358)
Description: as §1

[3] = target: ASH1L (Homo sapiens, UniProt Q9NR48)
Description: as §1

[4] = target: T2, BCDIN3D (Homo sapiens, UniProt Q7Z5W3)
T2 sequence (Q7Z5W3 1-292): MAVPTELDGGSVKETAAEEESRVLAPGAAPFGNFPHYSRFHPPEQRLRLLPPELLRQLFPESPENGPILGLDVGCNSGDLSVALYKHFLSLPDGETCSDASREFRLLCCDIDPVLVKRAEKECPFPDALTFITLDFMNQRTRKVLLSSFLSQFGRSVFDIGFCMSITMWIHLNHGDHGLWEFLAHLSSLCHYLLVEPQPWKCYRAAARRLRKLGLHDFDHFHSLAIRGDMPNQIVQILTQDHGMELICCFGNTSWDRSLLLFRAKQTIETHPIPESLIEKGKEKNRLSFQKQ
Description: as §1

[5] = target: SUV39H2 (Homo sapiens, UniProt Q9H5I1)
Description: as §1

[6] = target: SETDB1 (Homo sapiens, UniProt Q15047)
Description: as §1

[7] = target: T3, MLL3 (Homo sapiens, UniProt Q8NEZ4)
T3 construct: gene KMT2C
Description: as §1

[8] = target: DNMT3B/3L (Homo sapiens, UniProt Q9UBC3)
Description: as §1

T1 sequence (Q4FZB7 whole entry): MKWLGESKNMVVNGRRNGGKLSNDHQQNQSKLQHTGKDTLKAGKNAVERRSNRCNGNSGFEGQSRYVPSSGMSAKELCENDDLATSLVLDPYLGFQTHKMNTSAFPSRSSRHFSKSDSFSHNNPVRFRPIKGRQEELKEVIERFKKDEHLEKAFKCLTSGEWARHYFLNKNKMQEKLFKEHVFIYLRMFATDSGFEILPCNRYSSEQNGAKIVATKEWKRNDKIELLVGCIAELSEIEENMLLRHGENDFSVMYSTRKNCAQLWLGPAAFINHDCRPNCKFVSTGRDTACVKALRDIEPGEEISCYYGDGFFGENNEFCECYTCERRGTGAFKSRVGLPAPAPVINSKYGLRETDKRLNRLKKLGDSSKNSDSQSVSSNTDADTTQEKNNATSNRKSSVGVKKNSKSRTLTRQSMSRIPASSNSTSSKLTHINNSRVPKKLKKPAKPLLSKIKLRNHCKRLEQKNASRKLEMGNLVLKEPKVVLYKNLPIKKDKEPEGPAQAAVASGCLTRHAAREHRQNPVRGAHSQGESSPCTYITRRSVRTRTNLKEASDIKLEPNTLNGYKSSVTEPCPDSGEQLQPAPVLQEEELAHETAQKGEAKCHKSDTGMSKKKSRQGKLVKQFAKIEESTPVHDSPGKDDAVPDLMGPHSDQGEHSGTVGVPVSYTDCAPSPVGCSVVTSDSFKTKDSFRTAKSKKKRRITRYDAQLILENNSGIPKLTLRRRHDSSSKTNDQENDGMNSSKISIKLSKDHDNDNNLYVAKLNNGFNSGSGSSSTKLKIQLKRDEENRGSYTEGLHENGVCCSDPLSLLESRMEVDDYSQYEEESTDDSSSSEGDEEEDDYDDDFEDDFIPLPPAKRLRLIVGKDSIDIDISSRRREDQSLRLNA
DNMT1, sequence (P26358 whole entry): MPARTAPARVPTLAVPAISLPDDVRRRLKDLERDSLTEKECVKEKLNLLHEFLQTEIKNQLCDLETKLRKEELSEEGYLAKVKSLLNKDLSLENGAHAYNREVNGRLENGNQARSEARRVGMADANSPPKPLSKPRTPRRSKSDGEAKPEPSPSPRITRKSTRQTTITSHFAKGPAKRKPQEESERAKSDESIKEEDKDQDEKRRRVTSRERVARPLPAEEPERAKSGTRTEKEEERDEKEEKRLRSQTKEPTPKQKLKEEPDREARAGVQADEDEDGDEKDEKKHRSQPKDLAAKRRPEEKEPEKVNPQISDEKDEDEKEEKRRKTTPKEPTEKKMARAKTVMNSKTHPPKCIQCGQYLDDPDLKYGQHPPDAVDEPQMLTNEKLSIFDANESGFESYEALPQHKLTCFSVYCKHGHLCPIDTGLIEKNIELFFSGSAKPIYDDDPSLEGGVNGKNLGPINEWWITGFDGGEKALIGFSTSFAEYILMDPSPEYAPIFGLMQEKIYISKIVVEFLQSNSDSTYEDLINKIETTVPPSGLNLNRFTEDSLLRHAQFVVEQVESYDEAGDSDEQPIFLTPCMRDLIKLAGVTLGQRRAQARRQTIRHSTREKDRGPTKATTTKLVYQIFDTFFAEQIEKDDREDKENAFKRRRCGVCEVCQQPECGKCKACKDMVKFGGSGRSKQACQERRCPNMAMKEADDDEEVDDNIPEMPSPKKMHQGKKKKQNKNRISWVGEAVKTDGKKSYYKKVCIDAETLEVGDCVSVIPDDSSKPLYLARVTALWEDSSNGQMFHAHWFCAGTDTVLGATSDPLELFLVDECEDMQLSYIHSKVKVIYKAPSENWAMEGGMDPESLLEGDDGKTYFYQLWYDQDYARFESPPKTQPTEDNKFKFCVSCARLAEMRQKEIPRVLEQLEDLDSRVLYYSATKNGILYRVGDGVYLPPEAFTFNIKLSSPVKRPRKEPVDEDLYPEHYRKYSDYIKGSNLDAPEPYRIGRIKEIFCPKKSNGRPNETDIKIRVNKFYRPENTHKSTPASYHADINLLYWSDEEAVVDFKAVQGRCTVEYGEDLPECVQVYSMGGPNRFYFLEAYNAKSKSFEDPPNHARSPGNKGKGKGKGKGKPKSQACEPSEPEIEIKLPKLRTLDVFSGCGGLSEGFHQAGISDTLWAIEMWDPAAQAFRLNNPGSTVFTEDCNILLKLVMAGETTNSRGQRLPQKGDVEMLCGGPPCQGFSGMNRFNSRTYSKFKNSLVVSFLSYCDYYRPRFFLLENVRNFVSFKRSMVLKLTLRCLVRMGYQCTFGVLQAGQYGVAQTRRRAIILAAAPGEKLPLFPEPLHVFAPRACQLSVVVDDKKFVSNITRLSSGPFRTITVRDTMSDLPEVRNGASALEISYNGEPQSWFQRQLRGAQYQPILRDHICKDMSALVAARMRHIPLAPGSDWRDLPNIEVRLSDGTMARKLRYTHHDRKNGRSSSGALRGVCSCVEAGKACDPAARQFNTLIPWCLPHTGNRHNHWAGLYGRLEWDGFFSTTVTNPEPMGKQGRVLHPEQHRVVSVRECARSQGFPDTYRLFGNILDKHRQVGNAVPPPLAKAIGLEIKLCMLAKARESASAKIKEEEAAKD
SUV39H2, sequence (Q9H5I1 whole entry): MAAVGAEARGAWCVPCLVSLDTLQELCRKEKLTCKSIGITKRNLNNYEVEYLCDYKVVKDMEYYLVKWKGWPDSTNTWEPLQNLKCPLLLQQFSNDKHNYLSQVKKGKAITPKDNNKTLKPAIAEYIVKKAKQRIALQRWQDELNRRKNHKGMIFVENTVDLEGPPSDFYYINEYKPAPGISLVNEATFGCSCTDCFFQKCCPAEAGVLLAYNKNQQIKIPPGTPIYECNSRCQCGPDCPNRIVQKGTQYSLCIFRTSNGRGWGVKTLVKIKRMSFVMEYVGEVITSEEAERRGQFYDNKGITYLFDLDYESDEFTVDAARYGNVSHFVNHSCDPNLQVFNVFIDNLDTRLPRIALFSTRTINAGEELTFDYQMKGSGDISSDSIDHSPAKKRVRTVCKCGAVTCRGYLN

| SMILES | remaining activity at 1 µM [1] | remaining activity at 10 µM [1] | remaining activity at 1 µM [2] | remaining activity at 10 µM [2] | remaining activity at 1 µM [3] | remaining activity at 10 µM [3] | remaining activity at 1 µM [4] | remaining activity at 10 µM [4] | remaining activity at 1 µM [5] | remaining activity at 10 µM [5] | remaining activity at 1 µM [6] | remaining activity at 10 µM [6] | remaining activity at 1 µM [7] | remaining activity at 10 µM [7] | remaining activity at 1 µM [8] | remaining activity at 10 µM [8] |
| --- | --- | --- | --- | --- | --- | --- | --- | --- | --- | --- | --- | --- | --- | --- | --- | --- |
| CC1(C)O[C@@H]2[C@H](O1)[C@@H](CSCCCCNCc1cccc(-c3ccc(Cl)cc3)c1)O[C@H]2n1cnc2c(N)ncnc21 [SGC8158N] | 99% | 102% | 94% | 99% | 99% | 102% | 96% | 94% | 103% | 78% | 99% | 91% | 99% | 100% | 104% | 103% |
| Nc1ncnc2c1ncn2[C@@H]1O[C@H](CSCCCCNCc2cccc(-c3ccc(Cl)cc3)c2)[C@@H](O)[C@H]1O [SGC8158] | 96% | 87% | 98% | 91% | 96% | 97% | 55% | 11% | 103% | 102% | 103% | 99% | 105% | 105% | 100% | 101% |
